Results as given in ChEMBL document CHEMBL1201862, “PubChem BioAssay data set” (2004).
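Step 1: Grow cells in 96-well plates. Step 2: Expose to compound for 48 hours at 5 concentrations. Step 3: Interpolate endpoints linearly; if unreached, use highest concentration. Abbreviation: GI50, concentration required for 50% inhibition of growth.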 Active and inactive are the calls of the source. Cut-off read from the data, not from the text of the source: active = GI50 up to about 1.1 µM and inactive = higher.

Key:
Test in all cases: inhibition of tumour cell growth, NCI panel, 48 h
TK-10 = tested on: TK-10
SK-MEL-5 = tested on: SK-MEL-5
SR = tested on: SR
SN12C = tested on: SN12C
HOP-62 = tested on: HOP-62
SK-OV-3 = tested on: SK-OV-3
RXF 393 = tested on: RXF 393
Malme-3M = tested on: Malme-3M
IGROV-1 = tested on: IGROV-1
SNB-75 = tested on: SNB-75
SNB-19 = tested on: SNB-19
HCC 2998 = tested on: HCC 2998
MCF7 = tested on: MCF7
T47D = tested on: T47D
KM12 = tested on: KM12
HT-29 = tested on: HT-29
CAKI-1 = tested on: CAKI-1
DU-145 = tested on: DU-145
M14 = tested on: M14
786-0 = tested on: 786-0
SK-MEL-28 = tested on: SK-MEL-28
NCI/ADR-RES = tested on: NCI/ADR-RES
NCI-H460 = tested on: NCI-H460
MDA-N = tested on: MDA-N
RPMI-8226 = tested on: RPMI-8226
MDA-MB-435 = tested on: MDA-MB-435
A549 = tested on: A549
SF-268 = tested on: SF-268
MOLT-4 = tested on: MOLT-4
EKVX = tested on: EKVX
HCT-15 = tested on: HCT-15
SW-620 = tested on: SW-620
ACHN = tested on: ACHN
NCI-H226 = tested on: NCI-H226
OVCAR-4 = tested on: OVCAR-4
A498 = tested on: A498
HL-60 = tested on: HL-60
SK-MEL-2 = tested on: SK-MEL-2
LOX IMVI = tested on: LOX IMVI
OVCAR-8 = tested on: OVCAR-8
BT-549 = tested on: BT-549
Hs-578T = tested on: Hs-578T
NCI-H23 = tested on: NCI-H23
CCRF-CEM = tested on: CCRF-CEM
NCI-H522 = tested on: NCI-H522
PC-3 = tested on: PC-3
MDA-MB-231 = tested on: MDA-MB-231
K562 = tested on: K562
UO-31 = tested on: UO-31
SF-295 = tested on: SF-295
SF-539 = tested on: SF-539
COLO 205 = tested on: COLO 205
UACC-62 = tested on: UACC-62
UACC-257 = tested on: UACC-257
OVCAR-5 = tested on: OVCAR-5
HOP-92 = tested on: HOP-92
U-251 = tested on: U-251
HCT-116 = tested on: HCT-116
OVCAR-3 = tested on: OVCAR-3

## Cn1c(CO)ccc1-c1ccc(-c2ccc[se]2)[se]1
TK-10
  GI50: < 0.01 µM (active)
SK-MEL-5
  GI50: 29.8 µM (inactive)
SR
  GI50: 30.3 µM (inactive)
SN12C
  GI50: > 52.4 µM (inactive)
HOP-62
  GI50: 20.7 µM (inactive)
SK-OV-3
  GI50: 13.6 µM (inactive)
RXF 393
  GI50: 3.07 µM (inactive)
Malme-3M
  GI50: > 72.1 µM (inactive)
IGROV-1
  GI50: 0.0384 µM (active)
SNB-75
  GI50: 12.8 µM (inactive)
SNB-19
  GI50: 30.7 µM (inactive)
HCC 2998
  GI50: 0.798 µM (active)
MCF7
  GI50: 0.119 µM (active)
T47D
  GI50: 0.155 µM (active)
KM12
  GI50: 19.8 µM (inactive)
HT-29
  GI50: 31.7 µM (inactive)
CAKI-1
  GI50: < 0.01 µM (active)
DU-145
  GI50: 17.7 µM (inactive)
M14
  GI50: 42.9 µM (inactive)
786-0
  GI50: 29.1 µM (inactive)
SK-MEL-28
  GI50: > 49.5 µM (inactive)
NCI/ADR-RES
  GI50: 32.7 µM (inactive)
NCI-H460
  GI50: 14.2 µM (inactive)
MDA-N
  GI50: 15.5 µM (inactive)
RPMI-8226
  GI50: 20.9 µM (inactive)
MDA-MB-435
  GI50: 12.6 µM (inactive)
A549
  GI50: 17.1 µM (inactive)
SF-268
  GI50: 56.9 µM (inactive)
MOLT-4
  GI50: 19.6 µM (inactive)
EKVX
  GI50: 35.1 µM (inactive)
HCT-15
  GI50: 35.9 µM
SW-620
  GI50: 0.0959 µM (active)
ACHN
  GI50: 72.1 µM (inactive)
NCI-H226
  GI50: 0.244 µM (active)
OVCAR-4
  GI50: 0.043 µM (active)
A498
  GI50: 0.0349 µM (active)
HL-60
  GI50: 21.8 µM (inactive)
SK-MEL-2
  GI50: 41.1 µM (inactive)
LOX IMVI
  GI50: 47.9 µM (inactive)
OVCAR-8
  GI50: 23 µM (inactive)
BT-549
  GI50: 21.8 µM (inactive)
Hs-578T
  GI50: 55 µM (inactive)
NCI-H23
  GI50: 20.5 µM (inactive)
CCRF-CEM
  GI50: 23.1 µM (inactive)
NCI-H522
  GI50: 61.9 µM (inactive)
PC-3
  GI50: > 90.4 µM (inactive)
MDA-MB-231
  GI50: 23.6 µM (inactive)
K562
  GI50: 0.449 µM (active)
UO-31
  GI50: > 87.1 µM (inactive)
SF-295
  GI50: 34.6 µM (inactive)
SF-539
  GI50: 17.3 µM (inactive)
COLO 205
  GI50: 3.46 µM (inactive)

## OC(c1cc2ccccc2[nH]1)C1(c2cccnc2)SCCCS1 (stereo not drawn)
TK-10
  GI50: > 100 µM (inactive)
UACC-62
  GI50: 50.9 µM (inactive)
SK-MEL-5
  GI50: 43.6 µM (inactive)
SR
  GI50: 41.8 µM (inactive)
SN12C
  GI50: 99.3 µM (inactive)
HOP-62
  GI50: 50.2 µM (inactive)
UACC-257
  GI50: 52 µM (inactive)
SK-OV-3
  GI50: > 100 µM (inactive)
RXF 393
  GI50: 31.8 µM (inactive)
Malme-3M
  GI50: 87.3 µM (inactive)
IGROV-1
  GI50: 53.8 µM (inactive)
SNB-75
  GI50: 73.6 µM (inactive)
OVCAR-5
  GI50: 24.1 µM (inactive)
SNB-19
  GI50: > 100 µM (inactive)
MCF7
  GI50: 39.5 µM (inactive)
T47D
  GI50: 69.7 µM (inactive)
KM12
  GI50: 26.7 µM (inactive)
HT-29
  GI50: 33 µM (inactive)
CAKI-1
  GI50: > 100 µM (inactive)
DU-145
  GI50: > 100 µM (inactive)
M14
  GI50: 51.2 µM (inactive)
786-0
  GI50: 97.3 µM (inactive)
SK-MEL-28
  GI50: > 100 µM (inactive)
NCI/ADR-RES
  GI50: 53.3 µM (inactive)
NCI-H460
  GI50: 94.6 µM (inactive)
MDA-N
  GI50: 52.2 µM (inactive)
HOP-92
  GI50: > 100 µM (inactive)
MDA-MB-435
  GI50: 33.6 µM (inactive)
A549
  GI50: 47.6 µM (inactive)
SF-268
  GI50: 43.3 µM (inactive)
MOLT-4
  GI50: 27.9 µM (inactive)
EKVX
  GI50: 21.2 µM (inactive)
HCT-15
  GI50: 84.7 µM
SW-620
  GI50: 90.6 µM (inactive)
ACHN
  GI50: 86.5 µM (inactive)
NCI-H226
  GI50: > 100 µM (inactive)
OVCAR-4
  GI50: 48.8 µM (inactive)
A498
  GI50: 17.9 µM (inactive)
HL-60
  GI50: 26.2 µM (inactive)
SK-MEL-2
  GI50: 19.1 µM (inactive)
LOX IMVI
  GI50: 79.4 µM (inactive)
OVCAR-8
  GI50: 63.8 µM (inactive)
BT-549
  GI50: 57.9 µM (inactive)
Hs-578T
  GI50: 41.3 µM (inactive)
NCI-H23
  GI50: 35.6 µM (inactive)
U-251
  GI50: 47.1 µM (inactive)
NCI-H522
  GI50: 38.5 µM (inactive)
PC-3
  GI50: 38.5 µM (inactive)
HCT-116
  GI50: 59 µM (inactive)
MDA-MB-231
  GI50: 23.1 µM (inactive)
K562
  GI50: 27.2 µM (inactive)
UO-31
  GI50: 25.2 µM (inactive)
SF-295
  GI50: 68.5 µM (inactive)
COLO 205
  GI50: 61.4 µM (inactive)

## c1ccc2c(Cc3c[nH]c4ccccc34)c[nH]c2c1 [ARUNDINE]
TK-10
  GI50: 19.4 µM (inactive)
UACC-62
  GI50: > 100 µM (inactive)
SK-MEL-5
  GI50: 13.7 µM (inactive)
SR
  GI50: 12.4 µM (inactive)
SN12C
  GI50: 16.6 µM (inactive)
HOP-62
  GI50: 17.7 µM (inactive)
UACC-257
  GI50: 18.5 µM (inactive)
SK-OV-3
  GI50: 23.7 µM (inactive)
RXF 393
  GI50: 15.6 µM (inactive)
Malme-3M
  GI50: 31.3 µM (inactive)
IGROV-1
  GI50: 14.7 µM (inactive)
SNB-75
  GI50: 17.4 µM (inactive)
OVCAR-5
  GI50: 14.2 µM (inactive)
SNB-19
  GI50: 21.7 µM (inactive)
OVCAR-3
  GI50: 15.7 µM (inactive)
MCF7
  GI50: > 100 µM (inactive)
T47D
  GI50: 15.8 µM (inactive)
KM12
  GI50: 19.1 µM (inactive)
HT-29
  GI50: 15.2 µM (inactive)
CAKI-1
  GI50: 15.9 µM (inactive)
DU-145
  GI50: 18.2 µM (inactive)
M14
  GI50: 16.6 µM (inactive)
786-0
  GI50: 18.5 µM (inactive)
SK-MEL-28
  GI50: 36 µM (inactive)
NCI/ADR-RES
  GI50: 19.1 µM (inactive)
NCI-H460
  GI50: 19 µM (inactive)
MDA-N
  GI50: 19.2 µM (inactive)
HOP-92
  GI50: 16 µM (inactive)
RPMI-8226
  GI50: 20.2 µM (inactive)
MDA-MB-435
  GI50: 15.6 µM (inactive)
A549
  GI50: 20.8 µM (inactive)
SF-268
  GI50: 28.1 µM (inactive)
MOLT-4
  GI50: 13.5 µM (inactive)
EKVX
  GI50: 14.4 µM (inactive)
HCT-15
  GI50: 23.4 µM
SW-620
  GI50: 20.1 µM (inactive)
ACHN
  GI50: > 100 µM (inactive)
NCI-H226
  GI50: 2.14 µM (inactive)
OVCAR-4
  GI50: 17.8 µM (inactive)
A498
  GI50: 38.8 µM (inactive)
HL-60
  GI50: 12.5 µM (inactive)
SK-MEL-2
  GI50: 22.8 µM (inactive)
LOX IMVI
  GI50: 20.3 µM (inactive)
OVCAR-8
  GI50: 20.5 µM (inactive)
BT-549
  GI50: 18.2 µM (inactive)
Hs-578T
  GI50: 41.3 µM (inactive)
NCI-H23
  GI50: 13.3 µM (inactive)
U-251
  GI50: 17.7 µM (inactive)
CCRF-CEM
  GI50: 12.8 µM (inactive)
NCI-H522
  GI50: 30.5 µM (inactive)
PC-3
  GI50: 18.2 µM (inactive)
HCT-116
  GI50: 17.1 µM (inactive)
MDA-MB-231
  GI50: 14.3 µM (inactive)
K562
  GI50: 19.6 µM (inactive)
UO-31
  GI50: 14.1 µM (inactive)
SF-295
  GI50: 19.9 µM (inactive)
COLO 205
  GI50: 13.6 µM (inactive)
